# From patent publication US8278304B2, “Substituted 4-hydroxypyrimidine-5-carboxamides” (Merck Sharp & Dohme Corp., priority 2008, dated 2012)
# Counter-ions that a name gives are not always drawn.
# Target: T1, PHD2 (Homo sapiens, UniProt Q9GZT9)
# T1 construct: FLAG-tagged full length PHD2 expressed in and purified from baculovirus-infected Sf9 cells; FLAG; made in house; host or cells: baculovirus-infected Sf9 cells
# Assay: PHD2 / HIF-1α peptide hydroxylation assay, time resolved fluorescence (VHL complex detection)
# Format: biochemical
# Settings: FLAG-tagged full length PHD2; 0.2 μM 2-oxoglutarate, 0.5 μM HIF-1α peptide; read-out: PHD2 Activity (PHD2 binding activity expressed as IC50 (nM))
# Description: To each well of a 96-well plate was added 1 μL of test compound in DMSO and 20 μl of assay buffer (50 mM Tris pH 7.4/0.01% Tween-20/0.1 mg/ml bovine serum albumin/10 μM ferrous sulfate/1 mM sodium ascorbate/20 μg/ml catalase) containing 0.15 μg/ml FLAG-tagged full length PHD2 expressed in and purified from baculovirus-infected Sf9 cells. After a 30 min preincubation at room temperature, the enzymatic reactions were initiated by the addition of 4 μL of substrates (final concentrations of 0.2 μM 2-oxoglutarate and 0.5 μM HIF-1α peptide biotinyl-[…]).
# T1 sequence (Q9GZT9 whole entry): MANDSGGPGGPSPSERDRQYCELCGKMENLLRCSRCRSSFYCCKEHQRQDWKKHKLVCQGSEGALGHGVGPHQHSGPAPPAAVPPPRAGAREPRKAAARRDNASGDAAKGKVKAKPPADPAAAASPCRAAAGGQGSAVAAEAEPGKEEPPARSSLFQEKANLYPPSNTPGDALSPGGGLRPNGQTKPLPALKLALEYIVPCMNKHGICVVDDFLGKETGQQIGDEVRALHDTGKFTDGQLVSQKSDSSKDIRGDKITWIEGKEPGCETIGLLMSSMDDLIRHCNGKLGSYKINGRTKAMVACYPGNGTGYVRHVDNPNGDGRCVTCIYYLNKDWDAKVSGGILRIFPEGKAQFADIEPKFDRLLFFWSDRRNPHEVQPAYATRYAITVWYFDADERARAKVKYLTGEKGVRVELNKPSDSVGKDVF
row,Structure (SMILES),IC50 [nM]
1,"C[C@H](NC(=O)c1cnc(-n2cccn2)nc1O)c1ccc2c(c1)OCCO2 [Example 132, N-[(1S)-1-(2,3-dihydro-1,4-benzodioxin-6-yl)ethyl]-4-hydroxy-2-(1H-pyrazol-1-yl)pyrimidine-5-carboxamide]",≤ 10
2,"O=C(NC(c1ccccc1)c1ccccc1)c1cnc(-c2ccc[nH]2)nc1O [Example 45, N-(diphenylmethyl)-4-hydroxy-2-(1H-pyrrol-2-yl)pyrimidine-5-carboxamide]",100 to 1000
3,"Cc1ccc([C@@H](C)NC(=O)c2cnc(-n3cccn3)nc2O)cc1 [Example 78, 4-Hydroxy-N-[(1R)-1-(4-methylphenyl)ethyl]-2-(1H-pyrazol-1-yl)pyrimidine-5-carboxamide]",10 to 100
4,"CC(C)(NC(=O)c1cnc(-n2cccn2)nc1O)c1ccc(F)cc1 [Example 73, N-[1-(4-fluorophenyl)-1-methylethyl]-4-hydroxy-2-(1H-pyrazol-1-yl)pyrimidine-5-carboxamide]",≤ 10
5,"C[C@@H](NC(=O)c1cnc(-n2cccn2)nc1O)C1CCCCC1 [Example 84, N-[(1R)-1-cyclohexylethyl]-4-hydroxy-2-(1H-pyrazol-1-yl)pyrimidine-5-carboxamide]",10 to 100
6,"COc1ccc(C(NC(=O)c2cnc(-c3cccnn3)nc2O)c2ccc(C#N)cc2)c(OC)c1 (single isomer, unassigned) [Example 155, N-[(4-cyanophenyl)(2,4-dimethoxyphenyl)methyl]-4-hydroxy-2-(pyridazin-3-yl)pyrimidine-5-carboxamide]",≤ 10
7,"COc1ccc(C(NC(=O)c2cnc(-c3cccnn3)nc2O)c2ccc(Cl)nc2)cc1 (stereo not shown) [Example 169, N-[(6-chloropyridin-3-yl)(4-methoxyphenyl)methyl]-4-hydroxy-2-(pyridazin-3-yl)pyrimidin-5-carboxamide]",≤ 10
8,"CC(C)C(NC(=O)c1cnc(-n2cccn2)nc1O)c1ccccc1 (stereo not shown) [Example 131, 4-hydroxy-N-(2-methyl-1-phenylpropyl)-2-(1H-pyrazol-1-yl)pyrimidine-5-carboxamide]",≤ 10
9,"O=C(NC1(c2ccccc2)CCCCC1)c1cnc(-c2cccnn2)nc1O [Example 27, 4-hydroxy-N-(1-phenylcyclohexyl)-2-pyridazin-3-ylpyrimidine-5-carboxamide]",≤ 10
10,"O=C(NCc1cc(C(F)(F)F)cc(C(F)(F)F)c1)c1cnc(-n2cccn2)nc1O [Example 65, N-[3,5-bis(trifluoromethyl)benzyl]-4-hydroxy-2-(1H-pyrazol-1-yl)pyrimidine-5-carboxamide]",100 to 1000
11,"COc1ccc(C(NC(=O)c2cnc(-c3cccnn3)nc2O)c2ccc(OC)nc2)cc1 (stereo not shown) [Example 170, 4-hydroxy-N-[(4-methoxyphenyl)(6-methoxypyridin-3-yl)methyl]-2-(pyridazin-3-yl)pyrimidine-5-carboxamide]",≤ 10
12,"O=C(N[C@H](c1ccccc1)[C@H](O)c1ccccc1)c1cnc(-n2cccn2)nc1O [Example 127, 4-hydroxy-N-[(1R,2R)-2-hydroxy-1,2-diphenylethyl]-2-(1H-pyrazol-1-yl)pyrimidine-5-carboxamide]",≤ 10
13,"O=C(NCc1cnc(Cl)cn1)c1cnc(-n2cccn2)nc1O [Example 64, N-[(5-chloropyrazin-2-yl)methyl]-4-hydroxy-2-(1H-pyrazol-1-yl)pyrimidine-5-carboxamide]",10 to 100
14,"O=C(NCc1nc2ccccc2s1)c1cnc(-n2cccn2)nc1O [Example 55, N-(1,3-benzothiazol-2-ylmethyl)-4-hydroxy-2-(1H-pyrazol-1-yl)pyrimidine-5-carboxamide]",≤ 10
15,"O=C(NC(c1ccccc1)c1ccncc1)c1cnc(-n2cccn2)nc1O (stereo not shown) [Example 58, 4-Hydroxy-N-[phenyl(pyridin-4-yl)methyl]-2-(1H-pyrazol-1-yl)pyrimidine-5-carboxamide]",≤ 10
16,"Cc1cccc(-c2ncc(C(=O)NCc3ccc(Cl)cc3Cl)c(O)n2)n1 [Example 17, N-(2,4-dichlorobenzyl)-4-hydroxy-2-(6-methylpyridin-2-yl)pyrimidine-5-carboxamide]",100 to 1000
17,"CC(NC(=O)c1cnc(-n2cccn2)nc1O)[C@]12C[C@H]3C[C@H](C[C@H](C3)C1)C2 (stereo partly drawn) [Example 90, N-{(1R)-1-[(3S,5S,7S)-1-adamantyl]ethyl}-4-hydroxy-2-(1H-pyrazol-1-yl)pyrimidine-5-carboxamide]",10 to 100
18,"O=C(N[C@H](c1ccccc1)[C@H](O)c1ccccc1)c1cnc(-c2cccnn2)nc1O [Example 139, 4-hydroxy-N-[(1R,2R)-2-hydroxy-1,2-diphenylethyl]-2-(pyridazin-3-yl)pyrimidine-5-carboxamide]",≤ 10
19,"O=C(O)CNC(=O)c1cnc(-n2cccn2)nc1O [Example 104, N-{[4-hydroxy-2-(1H-pyrazol-1-yl)pyrimidin-5-yl]carbonyl}glycine]",1000 to 10000

row,Structure (SMILES),IC50 [nM]
1,"O=C(c1cnc(-n2cccn2)nc1O)N1CCCCC1 [Example 81, 5-(Piperidin-1-ylcarbonyl)-2-(1H-pyrazol-1-yl)pyrimidin-4-ol]",1000 to 10000
2,"O=C(NCc1ccc(-c2cccc(F)c2)nc1)c1cnc(-n2cccn2)nc1O [Example 107, N-{[6-(3-fluorophenyl)pyridin-3-yl]methyl}-4-hydroxy-2-(1H-pyrazol-1-yl)pyrimidine-5-carboxamide trifluoroacetate (salt)]",≤ 10
3,"O=C(NC(Cc1ccccc1)c1ccccc1)c1cnc(-n2cccn2)nc1O (stereo not shown) [Example 67, N-(1,2-diphenylethyl)-4-hydroxy-2-(1H-pyrazol-1-yl)pyrimidine-5-carboxamide]",≤ 10
4,"C[C@H](NC(=O)c1cnc(-c2cccnn2)nc1O)c1ccc(Br)cc1 [Example 25, N-[(1S)-1-(4-bromophenyl)ethyl]-4-hydroxy-2-pyridazin-3-ylpyrimidine-5-carboxamide]",≤ 10
5,"O=C(NCc1ccc(C(F)(F)F)cn1)c1cnc(-n2cccn2)nc1O [Example 130, 4-hydroxy-2-(1H-pyrazol-1-yl)-N-{[5-(trifluoromethyl)pyridin-2-yl]methyl}pyrimidine-5-carboxamide]",10 to 100
6,"O=C(N[C@H]1CCc2ccccc21)c1cnc(-n2cccn2)nc1O [Example 119, N-[(1S)-2,3-dihydro-1H-inden-1-yl]-4-hydroxy-2-(1H-pyrazol-1-yl)pyrimidine-5-carboxamide]",10 to 100
7,"COc1ccc([C@H](C)NC(=O)c2cnc(-n3cc(C)cn3)nc2O)cc1 [Example 134, 4-hydroxy-N-[(1S)-1-(4-methoxyphenyl)ethyl]-2-(4-methyl-1H-pyrazol-1-yl)pyrimidine-5-carboxamide]",≤ 10
8,"CC(C)CC(NC(=O)c1cnc(-c2cccnn2)nc1O)c1ccc(C#N)cc1 (single isomer, unassigned) [Example 158, N-[1-(4-cyanophenyl)-3-methylbutyl]-4-hydroxy-2-(pyridazin-3-yl)pyrimidine-5-carboxamide]",≤ 10
9,"O=C(NCc1ccc(C(F)(F)F)cc1)c1cnc(-n2cccn2)nc1O [Example 54, 4-Hydroxy-2-(1H-pyrazol-1-yl)-N-[4-(trifluoromethyl)benzyl]pynmidine-5-carboxamide]",≤ 10
10,"COCc1ccc(C(NC(=O)c2cnc(-c3cccnn3)nc2O)c2ccc(OC)cc2)cc1 (single isomer, unassigned) [Example 183, 4-Hydroxy-N-[[4-(methoxymethyl)phenyl](4-methoxyphenyl)methyl]-2-pyridazin-3-ylpyrimidine-5-carboxamide]",≤ 10
11,"COc1ccc(C(NC(=O)c2cnc(-c3cccnn3)nc2O)c2ccc(O)cc2)cc1 (single isomer, unassigned) [Example 156, 4-hydroxy-N-[(4-hydroxyphenyl)(4-methoxyphenyl)methyl]-2-(pyridazin-3-yl)pyrimidine-5-carboxamide]",≤ 10
12,"COc1ccc(C(NC(=O)c2cnc(-c3cccnn3)nc2O)c2ccc(OC)nc2)cc1 (single isomer, unassigned) [Example 190]",≤ 10
13,"Cc1nc(-c2ncc(C(=O)NCc3cccc(-c4ccccc4)c3)c(O)n2)cs1 [Example 42, N-(biphenyl-3-ylmethyl)-4-hydroxy-2-(2-methyl-1,3-thiazol-4-yl)pyrimidine-5-carboxamide]",10 to 100
14,"O=C(NCc1ccc(-c2ccccc2)cc1)c1cnc(-c2cccnn2)nc1O [Example 28, N-(biphenyl-4-ylmethyl)-4-hydroxy-2-pyridazin-3-ylpyrimidine-5-carboxamide]",≤ 10
15,"COc1ccc(C(NC(=O)c2cnc(-c3cccnn3)nc2O)c2ccc(F)cc2)c(OC)n1 (stereo not shown) [Example 177, N-[(2,6-dimethoxypyridin-3-yl)(4-fluorophenyl)methyl]-4-hydroxy-2-(pyridazin-3-yl)pyrimidine-5-carboxamide]",≤ 10
16,"O=C(NCc1ccc(F)cc1)c1cnc(-c2ccc(C(F)(F)F)cn2)nc1O [Example 11, N-(4-fluorobenzyl)-4-hydroxy-2-[5-(trifluoromethyl)pyridin-2-yl]pyrimidine-5-carboxamide]",1000 to 10000
17,"O=C(NC(c1ccccc1)c1ccc(C(F)(F)F)nc1)c1cnc(-n2cccn2)nc1O (single isomer, unassigned) [Example 143, 4-hydroxy-N-{phenyl[6-(trifluoromethyl)pyridin-3-yl]methyl}-2-(1H-pyrazol-1-yl)pyrimidine-5-carboxamide]",≤ 10
18,"COc1ccc(CC(NC(=O)c2cnc(-c3cccnn3)nc2O)c2ccc(C#N)cc2)cc1 (single isomer, unassigned) [Example 160, N-[1-(4-cyanophenyl)-2-(4-methoxyphenyl)ethyl]-4-hydroxy-2-(pyridazin-3-yl)pyrimidine-5-carboxamide]",10 to 100
